Structures can show the parent of a compound that is named as a salt.
Key:
[1] = test system: CLL cells; assay: LC3 fluorescence in CLL cells from patients treated with flavopiridol in clinic; type: in vivo, human
Experimental: In this trial, CLL cells were collected pre- and post-therapy 4.5 hours, day 1 (n=16). By confocal fluorescence microscopy, both increased autophagosome formation (P=0.0011) and fusion with lysosomes is observed (FIG. 3F). […] The level of autophagy, as assessed by LC3 fluorescence intensity, was overall greater in non-responders versus responders in both pre- and post-treatment samples (P=0.018); however, the increase in intensity at 4.5 hours post- vs. pre-treatment was only slightly higher for non-responders compared to responders (fold change of 2.51 vs. 1.82, P=0.3445). […] Collectively, these studies provide evidence that our in vitro observations are relevant to the clinical setting.
After 4 hours exposure to agents, cells were washed in phosphate-buffered saline (PBS) and made adherent on a microscope slide by centrifugation in a Cytospin3 (Shandon) centrifuge. Immediately after cytospin, cells were fixed in cold acetone. Next, the cells were incubated in blocking solution (2% bovine serum albumin in PBS) and stained for LC3 (Cell Signaling, Boston, Mass.)) and Lamp2 (Santa Cruz Biotechnology, Santa Cruz, Calif.) by incubating separately with the respective primary antibodies over night, in 4° C., followed by incubation with fluorescent secondary antibodies (Invitrogen, Carlsbad, Calif.): Alexa fluor 594 (red) anti-rabbit for LC3 and Alexa fluor 488 (green) anti-mouse for Lamp2. Nuclei were stained blue with DAPI (Vector Laboratories, Burlingame, Calif.). Images were taken using a 60× objective and 4× digital zoom with Olympus Fluoview 1000 Laser Scanning Confocal microscope at the Ohio State University Campus Microscopy and Imaging Facility. ATF6 antibody was purchased from LifeSpan Biosciences (Seattle, Wash.) and Nrf2 was from Santa Cruz Biotechnology (Santa Cruz, Calif.). Nuclei were evaluated for ATF6 and Nrf2 using confocal microscopy to collect Z stacks, approximately 45 slices per cell, 0.2 μm each.
LC3 intensity and number of dots per cell were both assessed in the fluorescence images. Integrated intensity was measured using Metamorph v.7.0. […] To quantify co-localization, two binary nuclei images—red (R) and green (G)—are obtained. The correlation value is calculated as the number of white pixels of (R&G) divided by the number of pixels of (RIG), where (R&G) is the intersection of R and G, and (RIG) is the union of R and G. The program used for cell counts and measurement of correlation index is based on MatLab software (Natick, Mass.) and it was developed by members of Department of Biomedical Informatics, The Ohio State University.
For the quantification of LC3 fluorescence in serial samples (in vivo data), CLL patients were classified as either “no response” (N=10) or “partial response” (N=6). […]

[2] = test system: 697 cells; assay: ChIP assay of ATF6 at GRP78 promoter in 697 cells; type: cell-based; conditions: relative to IgG control
Experimental: In brief, cells were treated with 37% formaldehyde to ensure crosslinking of proteins to DNA. Cells were lysed and sonicated to shear the chromatin to fragments of approximately 500 bp. Sheared chromatin was incubated with ATF6 antibody (LifeSpan Biosciences, Seattle, Wash.), followed by precipitation, washing and reversing of the crosslinks Purified DNA was then analyzed by real-time quantitative PCR using primers to the GRP78 promoter region. Primers were designed using Primer 3 software and purchased from IDT (Coralville, Iowa).

CN1CC[C@H](c2c(O)cc(O)c3c(=O)cc(-c4ccccc4Cl)oc23)[C@H](O)C1 [flavopiridol, (cis-5,7-dihydroxy-2-(2-chlorophenyl)-8-[4-(3-hydroxy-1-methyl)-piperidin-yl]-1-benzopyran-4-one)hydrochloride]
average increase in LC3 integrated intensity at 4.5 hours after flavopiridol infusion versus pretreatment ([1]; CLL patients n=16, all): 2.16 fold | fold change of LC3 intensity 4.5 hours vs pre-treatment, non-responders ([1]; non-responders (N=10)): 2.51 fold | overall LC3 intensity, non-responders compared to responders ([1]; pre- and post-treatment samples, 95% CI 1.07, 1.95): 1.44 times | fold change of LC3 intensity 4.5 hours vs pre-treatment, responders ([1]; responders (N=6)): 1.82 fold | binding of GRP78 promoter region by ATF6 [2]: enhanced binding of the GRP78 promoter region by ATF6
